Laboratory results from patent publication US20250179033A1 (priority 2021, published 2025).
Like-named read-outs stand apart in the source and are kept apart here.

Experiments:
HIV-1 IIIB (wild-type) = test: HIV inhibition assay in TZM-bl cells, wild-type; assay type: cell-based; conditions: Human immunodeficiency virus 1, IIIB, read-out: IC50 (TZM, WT)
Description: (§1) Cells and virus culture: TZM-bl cells (42), HIV-1 IIIB virus (43-45) and HIV-1 IIIB (A17 variant) virus (46) as well are the NNRTI resistant mutants (strain NL4-3) (47) were obtained from the NIH HIV Reagent Program. H9 [derivative of HuT 78]cells (ATCC® HTB176™) were obtained from the American Type Culture Collection (Manassas, Virginia, United States of America). These viruses were grown in H9 cells to high titer, which was tested using a HIV p24 (high sensitivity) The detection kit used was sold under the tradename ALPHALISA® Detection Kit (PerkinElmer, Waltham, Massachusetts, United States of America). The viruses were concentrated using Lenti-X Concentrator (Takara Bio USA, Inc., Mountain View, California, United States of America). Infections of TZM-bl cells with either virus was facilitated with 15 μg/mL DEAE-dextran.
(§2) Compounds were serially diluted starting with 10 mM stocks in DMSO. DMSO concentrations were kept the same for all dilutions used within an assay (either 0.005% or 0.05% depending on highest concentration used). Duplicate 96-well plates were set up with 25 μL compound dilution, 25 μL virus, and 50 μL TZM-bl cells (2×10^5/mL) with DEAE-dextran and incubated at 37° C. 5% CO2 for 48 hr. All compounds were tested in triplicate, with single wells of efavirenz dilutions on each plate. All plates had 3-5 control wells without compound, 1 control well with no cells, and 1 control well with a highly toxic level of DMSO (9%). Inhibition assays were set up in clear tissue-culture treated plates with lysates moved to black assay plates or were set up in black tissue culture-treated plates. Medium was removed and the cells were lysed with Glo Lysis Buffer (Promega, Madison, Wisconsin, United States of America). Luciferase Assay System reagent (Promega, Madison, Wisconsin, United States of America) was added to cells and relative light units (RLU) was measured using an EnSpire instrument (PerkinElmer, Waltham, Massachusetts, United States of America). Toxicity assays were set up in clear tissue culture-treated plates. CellTiter-Blue Cell Viability Assay reagent (Promega) was added to the wells after 46 hr incubation, followed by 2 hr incubation. Sodium lauryl sulfate was added to 1.5% to stop the reaction and the plates were measured for fluorescence (560 nmEx/590 nmEm) using an EnSpire instrument (PerkinElmer, Waltham, Massachusetts, United States of America).

[1] = test system: HIV-1 IIIB A17 variant (Y181C/K103N); test: HIV inhibition assay in TZM-bl cells, A17 variant; assay type: cell-based; conditions: Human immunodeficiency virus 1, IIIB, TZM-bl
Description: as §1, §2

[2] = Toxicity assay in TZM-bl cells; assay type: cell-based; conditions: human
Description: as §2

TZM-bl cells = test: Toxicity assay in TZM-bl cells; assay type: cell-based
Description: as §2

[3] = target: T1, HIV I reverse transcriptase (Human immunodeficiency virus type 1 group M subtype B, UniProt P03366); test: Reverse transcriptase inhibition assay (Roche kit, ELISA); assay type: biochemical
T1 construct: purchased Roche
Description: NNRTI assay methods: Inhibition of HIV I reverse transcriptase was assessed via a kit from Roche (Indianapolis-Marion County, Indiana, United States of America) using the manufacture's protocol (500 μM final reverse transcriptase reaction amount). […] DMSO concentrations were kept the same for all dilutions used within an assay (0.05%). Final compound concentrations ranged from 5000 nM-0.05 nM with 2-fold serial dilutions. 96-well plates were set up with 20 μL compound dilution, 20 μL reverse transcriptase, and 20 μL template/nucleotides and incubated at 37° C. 5% CO2 for 1 hr in a reaction plate. 50 μL of each reaction was then transferred to a streptavidin conjugated 96-well plate and an ELISA assay was run based on manufacture's protocol. All compounds were tested in sextuplicate, with single wells of efavirenz dilutions on each plate.

[4] = Table 3, TZM-bl, ± SEM, minimum 6 replicates
[5] = read-out: IC50 (TZM, A17), Table 3, TZM-bl, ± SEM, minimum 6 replicates
[6] = read-out: IC50 (TZM, A17), Table 4, TZM-bl

SMILES | IC50 (HIV-1 IIIB (wild-type); [4]) | IC50 (HIV-1 IIIB (wild-type); Table 4, TZM-bl) | IC50 [1, 5] | IC50 [1, 6] | CC50 at 48 h [2] | Qualitative Cell Toxicity within inhibition range (TZM-bl cells) | Quantitative Cell Toxicity (TZM-bl cells; human, 48 h) | EC50 [3] | CC50 at 48 h ([2]; Table 4, TZM-bl, read-out: CC50 (TZM)) | Qualitative Cell Toxicity within inhibition range (TZM-bl cells; Table 3, TZM-bl) | Quantitative Cell Toxicity (TZM-bl cells; Table 3, TZM-bl)
N#Cc1ccc(Nc2nc(N)n(S(=O)(=O)c3cccc4cc(C#N)ccc34)n2)cc1 [Compound 2, 5-[[5-amino-3-(4-cyanoanilino)-1,2,4-triazol-1-yl]sulfonyl]naphthalene-2-carbonitrile] | 1.11 ± 0.198 nM | 0.316 nM | 55 ± 4.01 nM | 24.4 nM | 7550 nM | None | 578 nM | 578 nM |  |  | 
N#Cc1ccc2c(S(=O)(=O)n3nc(Nc4ccc(C#N)c(Cl)c4)nc3N)cccc2c1 [Compound 5, 5-[[5-amino-3-(3-chloro-4-cyano-anilino)-1,2,4-triazol-1-yl]sulfonyl]naphthalene-2-carbonitrile] | 0.42 ± 0.0777 nM | 0.428 nM | 39.6 ± 18.2 nM | 15.7 nM |  |  |  | 1710 nM | 6010 nM | None | 1710 nM
N#Cc1ccc2c(S(=O)(=O)n3nc(Nc4ccc(C#N)c(C#N)c4)nc3N)cccc2c1 [Compound 14, 4-[[5-amino-1-[(6-cyano-1-naphthyl)sulfonyl]-1,2,4-triazol-3-yl]amino]phthalonitrile] | 0.684 ± 0.077 nM | 0.318 nM | 37.2 ± 15.4 nM | 31.7 nM | 31800 nM | None | 1350 nM | 1350 nM |  |  | 
N#C/C=C/c1ccc2c(S(=O)(=O)n3nc(Nc4ccc(CC#N)cc4)nc3N)cccc2c1 [Compound 21, 3-[5-[[5-amino-3-[4-(cyanomethyl)anilino]-1,2,4-triazol-1-yl]sulfonyl]-2-naphthyl]prop-2-enenitrile] | 0.255 ± 0.035 nM | 0.228 nM | 5.42 ± 1.39 nM | 13.8 nM | 747 nM | None | 747 nM | 10900 nM |  |  | 
Nc1nc(Nc2ccc(Cl)cc2)nn1S(=O)(=O)c1cccc2nonc12 [Compound 37, 1-(2,1,3-benzoxadiazol-4-ylsulfonyl)-N3-(4-chlorophenyl)-1,2,4-triazole-3,5-diamine] | 10.2 ± 1.46 nM |  | > 1000 nM |  |  | None |  |  |  |  | 
COc1ccc(Cl)cc1S(=O)(=O)n1nc(Nc2ccc(Cl)cc2)nc1N [Compound 38, 1-(5-chloro-2-methoxy-phenyl)sulfonyl-N3-(4-chlorophenyl)-1,2,4-triazole-3,5-diamine] | 177 ± 73.1 nM |  | > 1000 nM |  |  | None |  |  |  |  | 
Nc1nc(Nc2ccc(Cl)cc2)nn1S(=O)(=O)c1ccc(F)c(F)c1F [Compound 39, N3-(4-chlorophenyl)-1-(2,3,4-trifluorophenyl)sulfonyl-1,2,4-triazole-3,5-diamine] | 575 ± 104 nM |  | > 1000 nM |  |  | None |  |  |  |  | 
Nc1nc(Nc2ccc(Cl)cc2)nn1S(=O)(=O)c1ccc(Br)s1 [Compound 40, 1-[(5-bromo-2-thienyl)sulfonyl]-N3-(4-chlorophenyl)-1,2,4-triazole-3,5-diamine] | 15.1 ± 3.12 nM |  | > 1000 nM |  |  | None |  |  |  |  | 
Nc1nc(Nc2ccc(Cl)cc2)nn1S(=O)(=O)c1cc(Cl)sc1Cl [Compound 41, N3-(4-chlorophenyl)-1-[(2,5-dichloro-3-thienyl)sulfonyl]-1,2,4-triazole-3,5-diamine] | 10.1 ± 1.69 nM |  | 3680 ± 10900 nM |  |  | None |  |  |  |  | 
N#Cc1ccc2c(S(=O)(=O)n3nc(Nc4c(Cl)cc(Cl)cc4Cl)nc3N)cccc2c1 [Compound 42, 5-[[5-amino-3-(2,4,6-trichloroanilino)-1,2,4-triazol-1-yl]sulfonyl]naphthalene-2-carbonitrile] | 28.1 ± 6.75 nM |  | > 1000 nM |  |  | None |  |  |  |  | 
N#Cc1cccc(S(=O)(=O)n2nc(Nc3c(Cl)cc(Cl)cc3Cl)nc2N)c1 [Compound 43, 3-[[5-amino-3-(2,4,6-trichloroanilino)-1,2,4-triazol-1-yl]sulfonyl]benzonitrile] | 33.7 ± 9.93 nM |  | > 1000 nM |  |  | None |  |  |  |  | 
CC(=O)Nc1nc(C)c(S(=O)(=O)n2nc(Nc3cc(Cl)c(Cl)cc3Cl)nc2N)s1 [Compound 44, N-[5-[[5-amino-3-(2,4,5-trichloroanilino)-1,2,4-triazol-1-yl]sulfonyl]-4-methyl-thiazol-2-yl]acetamide] | 165 ± 121 nM |  | > 1000 nM |  |  | None |  |  |  |  | 
N#Cc1ccc(Nc2nc(N)n(S(=O)(=O)c3ccc(C(F)(F)F)nc3)n2)c(Cl)c1 [Compound 45, 4-[[5-amino-1-[[6-(trifluoromethyl)-3-pyridyl]sulfonyl]-1,2,4-triazol-3-yl]amino]-3-chloro-benzonitrile] | 36.1 ± 8.67 nM |  | > 1000 nM |  |  | None |  |  |  |  | 
N#Cc1ccc(Nc2nc(N)n(S(=O)(=O)c3cccc4nc(Cl)ccc34)n2)c(Cl)c1 [Compound 46, 4-[[5-amino-1-[(2-chloro-5-quinolyl)sulfonyl]-1,2,4-triazol-3-yl]amino]-3-chloro-benzonitrile] | 394 ± 264 nM |  | > 1000 nM |  |  | None |  |  |  |  | 
Cc1c(S(=O)(=O)n2nc(Nc3ccc(C#N)cc3)nc2N)sc2ccc(Cl)cc12 [Compound 48, 4-[[5-amino-1-(5-chloro-3-methyl-benzothiophen-2-yl)sulfonyl-1,2,4-triazol-3-yl]amino]benzonitrile] | 14 ± 2.44 nM |  | > 1000 nM |  |  | None |  |  |  |  | 
N#CCc1ccc(Nc2nc(N)n(S(=O)(=O)c3cnc(Cl)nc3)n2)cc1 [Compound 49, 2-[4-[[5-amino-1-(2-chloropyrimidin-5-yl)sulfonyl-1,2,4-triazol-3-yl]amino]phenyl]-acetonitrile] | 108 ± 31.8 nM |  | > 1000 nM |  |  | None |  |  |  |  | 
CC(=O)Nc1nc(C)c(S(=O)(=O)n2nc(Nc3ccc(CC#N)cc3)nc2N)s1 [Compound 50, N-[5-[[5-amino-3-[4-(cyanomethyl)anilino]-1,2,4-triazol-1-yl]sulfonyl]-4-methyl-thiazol-2-yl]acetamide] | 19.4 ± 3.8 nM |  | > 1000 nM |  |  | None |  |  |  |  | 
N#Cc1ccc(Nc2nc(N)n(S(=O)(=O)c3c(Cl)nc4sccn34)n2)cc1C#N [Compound 51, 4-[[5-amino-1-(6-chloroimidazo[2,1-b]thiazol-5-yl)sulfonyl-1,2,4-triazol-3-yl]amino]-phthalonitrile] | 0.223 ± 0.055 nM |  | > 1000 nM |  |  | None |  |  |  |  | 
Cc1nc(-c2ccc(S(=O)(=O)n3nc(Nc4ccc(C#N)cc4)nc3N)s2)cs1 [Compound 52] | 2.14 ± 0.812 nM |  | > 1000 nM |  |  | None |  |  |  |  | 
